The record followed here is patent US20210128414A1, “SELF-ASSEMBLED NANOSTRUCTURES AND COMPOSITE MATERIALS USABLE IN DENTAL APPLICATIONS CONTAINING SAME” (Ramot at Tel-Aviv University Ltd., priority 2018, published 2021).

In data set [1] the test system is S. mutans. The data set can be described thus: Minimum inhibitory concentration and kinetic growth inhibition analysis of nanostructures. The format is cell-based, Streptococcus mutans. As to the method: The antibacterial capabilities of the obtained nanostructures were evaluated against S. mutans via a minimum inhibitory concentration (MIC) analysis and by kinetic growth inhibition analysis, as follows. S. mutans bacteria were grown under anaerobic conditions in brain heart infusion (BHI) medium (BD Difco) for 48 hours and then diluted to OD600 of 0.01 or 0.25 in BHI. Nanostructures samples, at an initial concentration of 8 mM, were added to the bacterial samples in 96-well plates in serial 2-fold dilutions, which were sealed to ensure anaerobic conditions. Kinetic growth inhibition was determined by optical density measurements (650 nm) using a Biotek Synergy HT microplate reader. The minimum inhibitory concentration (MIC) was determined using the microdilution assay, and evaluation of the reduction in colony-forming units was obtained by plating and counting bacterial samples before and after overnight treatment. […] The ability of the nanostructures to inhibit bacterial growth at a higher bacterial load, similar to that of an active infection was also tested. S. mutans cultures were grown until mid-log phase and were then treated with 2 mM samples of the nanostructures.

Data set [2] relates to S. mutans. The data set can be described thus: Bacterial morphology by high-resolution scanning electron microscopy. The format is cell-based, Streptococcus mutans. The note with it: overnight treatment with nanostructures. As to the method: The effect of Fmoc-F5-Phe nanostructures on bacterial morphology was studied using High-Resolution Scanning Electron Microscopy as follows.
Bacterial samples were centrifuged at 5000 rpm for 5 minutes, washed thrice in PBS, and fixed in 2.5% glutaraldehyde in PBS for 1 hour. The samples were then washed thrice in PBS and fixed in 1% OsO4 in PBS for 1 hour, followed by a dehydration series with ethanol. The samples were then left in absolute ethanol for 30 minutes and placed onto glass coverslips, followed by critical point drying and coating with gold. Micrographs were recorded using a JEOL JSM-6700F FE-SEM scanning electron microscope operating at 10 kV. The obtained micrographs shown in FIG. 1I are representative of three independent experiments.

Data set [3] concerns S. mutans. The data set can be described thus: Live/Dead viability analysis after contact with composite restoratives. The format is cell-based, Streptococcus mutans. As to the method: To directly assess bacterial viability, treated and control bacteria were subjected to Live/Dead viability analysis, using the Live/Dead backlight bacterial viability kit and accompanying instructions, as follows. S. mutans bacteria were grown in anaerobic conditions in BHI media for 48 hours and then diluted to an OD600 of 0.6 in BHI. 100 μl of these samples were deposited onto inserts coated on one side with each of the polymeric matrices and then incubated for one hour at 37 degrees. Following incubation […] was added to each well and the plates were sealed to ensure anaerobic conditions. At each time point (initial incubation, 1 hour and 24 hours) samples were taken and washed with saline, incubated for 15 minutes in a solution containing Propidium iodide and Syto9 (L13152 LIVE/DEAD® BacLight™ Bacterial Viability Kit, Molecular Probes, OR, USA) and washed with saline again. Fluorescence emission was detected using an ECLIPSE E600 (Nikon, Japan).

Data set [4] is described as follows: Occlusal fissure stability and optical property analyses. The note with it: 2% w/w composite. The format is physicochemical. As to the method: Occlusal Fissure Stability and Optical Property Analyses were also performed as follows.
Occlusal fissures were made via a diamond bur and then restored utilizing either the 2% nanostructure-containing restorative composites or a control (0%) restorative. The samples were contained for 30 days at 37° C. in sterile PBS. A Spectroshade Micro-MHT dental spectrophotometer normalized to the Vita classical color guide was then utilized to evaluate the color of the tested samples.

A short description of data set [5]: Shear-Punch Strength Test of nanostructure-incorporated resin composite restorative. The data set is classed as physicochemical. As to the method:
The effect of the incorporation of peptide nanostructures in the polymerized dental resin composite restorative on the structural integrity of the resin composite restorative was tested. A Shear-Punch Test was carried out on samples incorporating varying weight ratios of Fmoc-Pentafluoro-Phe.
A Shear-Punch Strength Test was performed according to Mount et al., Aust. Dent. 1996; J 41: 116-23. Shear Punch Strength Test. Briefly, a composition comprising the nanostructures dispersed in a pre-polymerized resin composite restorative was placed in 0.8 mm thick wash holders and light-cured to form flat parallel surfaces evenly supported and restrained by the holder. The samples were then placed in an Instron device (model 4502) for punching under a crosshead speed of 0.5 mm per minute. The maximum force applied (Fmax) was calculated as the mean of 10 different samples for each w/w % concentration of the tested nanostructure. Statistical analysis was carried out via one-way analysis of variance and Dunnett's post hoc test.

Data set [6] can be described thus: Diametral Tensile Strength (DTS) test. The data set is classed as physicochemical. The note with it: 2% w/w nanostructures in Filtek composite; p>0.155. As to the method: Diametral Tensile Strength (DTS) Test was further performed to verify the difference in tensile properties (tensile strength and stiffness of the specimens characterizing the elasticity of the materials) of the 2% amalgamated material compared to the control (0%), as follows.
Disks (6 mm in diameter, 3 mm in height) of either control resin composite restorative or 2% nanoassembly-incorporated resin composite restorative were prepared in a Teflon mold similar to the specimens used for the punch shear strength. Specimens were loaded up to failure. The linear slope during loading was calculated, indicating the stiffness of the specimen, and the DTS was calculated by: […]
where P is the load at failure (N), D is the specimen diameter (mm), and t is the specimen height (mm).
The specimens were loaded via the above-mentioned loading machine using the same crosshead speed. Statistical analysis was carried out via T-test.

For data set [7], the system named is S. mutans. Description: SYTOX Blue membrane permeation assay. The data set is classed as cell-based, Streptococcus mutans. The note with it: nanostructures, 3 hours incubation at 37° C. As to the method:
The effect of Fmoc-F5-Phe nanostructures on bacterial membrane permeation was also supported by a SYTOX Blue membrane permeation assay. SYTOX Blue is a cationic dye that cannot enter an intact cell unless its membrane is disrupted by external compounds. Inside the cell, SYTOX Blue stain binds to intracellular nucleic acids and fluoresces bright blue when excited with 405 nm violet laser light.
S. mutans bacteria were grown under anaerobic conditions in BHI medium (BD Difco) for 48 hours and diluted to 0.1 OD600. Fmoc-F5-Phe or ultrapure water (100 μL) as control was added to 300 μL of bacteria and incubated for 3 hours in 37° C. The bacterial cells were centrifuged for 5 minutes at 3700 rpm and incubated with 1 μM SYTOX blue (Thermo Fisher Scientific) for 30 minutes at 37° C. The samples were washed three times in PBS and examined by confocal microscopy LSM 510, excited at 405 nm (Zeiss, Germany).

Another data set deals with 3T3 fibroblasts. The data set can be described thus: MTT cell viability analysis of composite restoratives. The format is cell-based. The following applies: nanostructure-incorporated composite versus composite alone; 18 hours, 37° C. As to the method: (§1) The effect of the incorporation of Fmoc-F5-Phe on the cytotoxicity of the dental composite restoratives was tested. This was carried out by evaluating the effect of each amalgamated composite restorative (containing self-assembled nanostructures as described herein) on the viability of two cell lines; HeLa and 3T3 fibroblasts, using MTT analysis, as follows.
(§2) The 3T3 fibroblast cells and HeLa cells grown in Dulbecco's Modified Eagle's Medium (DMEM) supplemented with 10% fetal calf serum (FBS) (Biological Industries, Israel) were sub-cultured (2×10^5 cells/mL) in 96-well tissue microplates (100 μl per well) and were allowed to adhere overnight at 37° C. Inserts (in quadruplet) coated on one side with each of the nano-assembly incorporated resin composite restoratives were placed into the wells containing the adhered cells. After incubation for 18 hours at 37° C., cell viability was evaluated using the 3-(4,5-dimethylthiazolyl-2)-2,5-diphenyltetrazolium bromide (MTT) assay. Briefly, 10 μL of 5 mg/mL MTT dissolved in PBS was added to each well. After 4 hours incubation at 37° C., 100 μl of the extraction buffer [20% SDS dissolved in a solution of 50% dimethylformamide and 50% DDW (pH 4.7)] were added to each well, and the plates were incubated again at 37° C. for 30 minutes. Finally, color intensity was measured using an ELISA reader at 570 nm. […]

The subject of a further data set is HeLa cells. Described as above. The data set is classed as cell-based. The note with it: nanostructure-incorporated composite versus composite alone; 18 hours, 37° C. As to the method:
as §1, §2

Data set [8] relates to S. mutans. The data set can be described thus: Direct-contact kinetic analysis (direct-contact test) of polymerized composite materials. The data set is classed as cell-based, Streptococcus mutans. The note with it: 1 hour direct contact. As to the method: In order to evaluate the antimicrobial capabilities of the resin composite restoratives while simulating its clinical use, a direct-contact test (DCT) was carried out. This spectroscopic microplate reader based test, designed for compounds that are non-diffusible and non-soluble in water, allows measuring the effect of direct contact between the evaluated material and bacterial viability and growth. Four different W/W % samples of the resin composite material were evaluated at 0.25, 0.5, 1 and 2% Fmoc-F5-Phe nano-structure concentrations, and Filtek™ Ultimate Flow with no Fmoc-F5-Phe nano-structures additives, treated in the same manner, served as a control. Streptococcus mutans (S. mutans) was chosen for this evaluation as this strain is commonly found in the human oral cavity and is a significant caries-causing pathogen. Following direct contact of S. mutans bacteria with the Fmoc-F5-Phe incorporated materials the subsequent proliferation of the bacteria, was evaluated by optical density measurements over eighteen hours.
This analysis was carried out as described in Weiss et al. Endod. Dent. Traumatol. 12, 179-84 (1996), with slight modification.
S. mutans bacteria were grown in anaerobic conditions in BHI media for 48 hours and then diluted to an OD600 of 0.6 in BHI. […] were deposited onto inserts (concaved plastic surfaces designed to be suspended in the wells of 96 well-plates) coated on one side with each of the nano-assembly incorporated resin composite restoratives (four different W/W % samples of the resin composite material were evaluated at 0.25, 0.5, 1 and 2% concentrations of each nanostructure) and then incubated for one hour at 37° C. Following incubation […] was added to each well so that the inserts were submerged in the BHI and the plates were sealed to ensure anaerobic conditions. Kinetic growth inhibition was determined by optical density measurements (650 nm) using a Biotek Synergy HT microplate reader.

Data set [9] in a line: HPLC-based nanostructures release evaluation in sterile saliva. The data set is classed as physicochemical. The note with it: 37° C., 2% w/w composite. As to the method:
Restorative composites incorporating 4 mg of the Fmoc-F5-Phe nanostructures to a final w/w % of 2% were examined following 24, 48 and 72 hours of incubation at 37° C. in sterile saliva.

Data set [10] concerns S. mutans. The data set can be described thus: Live/Dead (Syto9/Propidium iodide) bacterial viability analysis of nanostructure-treated bacteria. The data set is classed as cell-based, Streptococcus mutans. The following applies: after kinetic analysis with nanostructures. As to the method: To directly assess bacterial viability, the bacteria were subjected to Live/Dead viability analysis containing Syto9 (indicating live bacteria) and Propidium iodide (PI) (indicating dead bacteria). Following kinetic analysis, the samples were washed thrice with saline, incubated for 15 minutes in a solution containing Syto9 and Propidium iodide (L13152 LIVE/DEAD BacLight Bacterial Viability Kit, Molecular Probes, OR), and washed with saline again. Fluorescence emission was detected using an ECLIPSE E600 fluorescent microscope (Nikon, Japan).

The mark [11] stands for this setting: 2% w/w nanostructures in Filtek composite.
The mark [12] stands for this setting: 0.25-1% w/w nanostructures in Filtek composite.

For the molecule `O=C(NC(Cc1c(F)c(F)c(F)c(F)c1F)C(=O)O)OCC1c2ccccc2-c2ccccc21` (stereo not drawn) [Fmoc-F5-Phe, Fmoc-Pentafluorophenylalanline], the “bacterial growth inhibition at higher bacterial load” value with S. mutans [1] (2 mM nanostructures added to mid-log phase cultures) is “inhibited bacterial proliferation”. The “reduction in colony-forming units” value with S. mutans [1] (nanostructures at 2 mM, overnight, early log phase cultures) was 7.2 log(10) CFU/mL. The “bacterial growth inhibition at lower concentrations” value with S. mutans [1] (nanostructures below 2 mM, overnight) is on record as “partially inhibiting growth in a dose-dependent manner”. Besides, the “concentration at which overnight incubation completely inhibited bacterial growth (MIC analysis)” value with S. mutans [1] (self-assembled nanostructures, cultures started at early log phase, overnight) was determined as 2000 µM. Besides, in the data set on S. mutans [2], the “effect on bacterial morphology” value is “membrane fusing, clumping, and disintegration were abundant”. The “bacterial viability (Live/Dead)” value in the data set on S. mutans [3] (setting [11]) is “bacterial cell death”; in the data set with S. mutans [3] (composite with nanostructures, one hour of treatment, versus Filtek alone) it was “large scale bacterial death”; with S. mutans [10], “significant bacterial cell death”. Besides, the “bacterial viability (Live/Dead), persistence of effect” value in the data set with S. mutans [3] (composite with nanostructures, 24 hours) is recorded as “persisted”. Moreover, the “stability of occlusal fissure restorations” value in [4] (30-day incubation at 37° C. in sterile PBS) is “remained intact and stable”. Also, the “color (Vita shade) versus control” value in [4] (Spectroshade Micro-MHT spectrophotometer) is reported as “same Vita shade”. The “Fmax versus control (0%)” value in data set [5] (0.25%, 0.5% and 1% w/w nanostructures in Filtek composite, p≥0.144) is given as “no statistically significant difference”. The “Fmax, inferior to control (0%) by” value in [5] (2% w/w nanostructures in Filtek composite, p=0.011) amounted to 9%. Besides, in [5] (nanostructures in Filtek composite, data not shown), the “effect on stiffness of the specimen” value was “no substantial effect”. Besides, the “diametral tensile strength and stiffness versus control (0%)” value in data set [6] is on record as “No statistically significant differences”. Besides, the “bacteria stained with SYTOX Blue (membrane permeation)” value in the data set with S. mutans [7] was “about 90%”. Further, the “effect of incorporation on cell viability (MTT)” value with 3T3 fibroblasts and in the data set with HeLa cells was “did not change the effect” in each case. For the same molecule, the bacterial growth inhibition result in the data set with S. mutans [8] (setting [12]) was “partially inhibit bacterial growth in a dose dependent manner”; in the data set on S. mutans [8] (setting [11]), “over 95%”. Besides, the “amount of nanostructures released” value in data set [9] (24 hours, 4 mg nanostructures) came out at 0.9520 micrograms; in data set [9] (48 hours) it was 0.1805 micrograms; in [9] (72 hours), 0.1088 micrograms. Besides, the “released fraction of initial amount of incorporated nanostructures” value in data set [9] (24 hours) is “less than 0.024%”. For the same molecule, in [9] (48 hours), the “released fraction of incorporated nanostructures” value is reported as “below 0.0046%”.
As to `O=C(N[C@@H](Cc1ccccc1)C(=O)O)OCC1c2ccccc2-c2ccccc21` [Fmoc-Phe, Fmoc-phenylalanine], the bacterial growth inhibition result is listed as “inhibited growth in a dose-dependent manner” in the data set on S. mutans [8] (setting [12]) and 60% in the data set on S. mutans [8] (setting [11]).
